A word on the IC50: it is the point on the concentration scale where inhibition reaches its midpoint. Low readings indicate inhibition by little substance, high ones a need for much substance.

In ChEMBL document CHEMBL1141791, “A cytotoxic sesquiterpene alkaloid from the South China Sea gorgonian Subergorgia suberosa” (J Nat Prod, 2005) one finds IC50 data, which are given here for 1 compound.

Each structure is given as a SMILES string. In brackets after ≈: the same amount, converted by molar mass.

This assay concerns MDA-MB-231. In words: Cytotoxicity against human MDA-MB-231 cells by MTT method. Type of assay: functional, cell-based. On the technique in general: Tetrazolium dyes change colour on reduction, which living cells bring about.

In turn, `C[C@H]1CC[C@H]2[C@H]3CC(=O)[C@H](Cn4c(O)nc5c(O)ncnc54)[C@]31CC2(C)C` showed an IC50 of 8.87 µg/mL (≈ 23.9 µM).
